Measured values as given in US12102617B2, “Antimicrobial compositions containing a synergistic combination of activated creatinine and an imidazole antifungal agent” (Board of Regents of the University of Nebraska, priority 2016, dated 2024).
In brackets after ≈: the same amount, converted by molar mass. Where a name gives a salt, the structure may show the parent alone. Read-outs that look alike come from different tables or passages of the source.

Legend:
[1] = test system: E. coli (Gram negative; laboratory strain 35150); assay: microbe, parasite or virus in culture; type: cell-based; details: single agent alone, 24 hours at 37° C.
Method: (§1) The antibacterial activity of the clotrimazole/activated creatinine solutions prepared as described in Example 1 was evaluated with respect to Staphylococcus aureus (Gram positive; laboratory strain 29213), E. coli (Gram negative; laboratory strain 35150), and a multiple drug resistant strain of Enterococcus faecalis (Gram positive). The S. aureus and E. coli were purchased from the American Type Culture Collection, and the E. faecalis was a local veterinary clinic isolate. The minimum inhibitory concentration (“MIC”) for each solution was determined against each of the three bacteria after incubation for 24 hours at 37° C. using two-fold dilutions and flat-bottom 96-well plates.

[2] = test system: Candida albicans yeast (ATCC1023); assay: Antifungal MIC evaluation (Example 3); type: cell-based; details: C. albicans yeast, single agent alone, 24 hours at 37° C.
Method: (§2) The MIC for each solution was determined against the fungi after incubation for 24 hours at 37° C. using two-fold dilutions and flat-bottom 96-well plates.

[3] = test system: Saccharomyces spp. yeast (baker's yeast); assay: Antifungal MIC evaluation (Example 3); type: cell-based; details: single agent alone, 24 hours at 37° C.
Method: as §2

[4] = test system: multiple drug resistant strain of Enterococcus faecalis (Gram positive); assay: MIC determination, two-fold dilutions in 96-well plates (Example 2); type: cell-based; details: E. faecalis (multiple drug resistant), single agent alone, 24 hours at 37° C.
Method: as §1

[5] = test system: Staphylococcus aureus (Gram positive; laboratory strain 29213); assay: as above; type: cell-based; details: for antibacterial efficacy against S. aureas (Example 2, FIG. 2): comparative photographs; for MIC: S. aureus, single agent alone, 24 hours at 37° C.
Method: as §1

[6] = test system: gram negative and gram positive bacteria; details: both gram negative and gram positive bacteria, including antibiotic resistant organisms; cited from earlier work
Penicillium spp. 1 = assay: Comparative antifungal testing on LB agar plate wells, mold fungi (Example 4); type: cell-based; details: 0.1% (w/v) solutions in wells of LB agar plate, after 48 hours
Method: (§3) Two species of penicillium, Penicillium spp. 1 and Penicillium spp. 2, were isolated from contaminates that grew on laboratory plates and were grown in LB broth, shaking for three days. One hundred microliters of the fungal broth were added to an LB agar plate and evenly spread on the surface. Test samples containing the following aqueous solutions were prepared: • 0.1% (w/v) clotrimazole (3.4 mM); • 0.1% (w/v) clotrimazole in 200 mM creatinine ethyl ester hydrochloride (“CEE”) (3.4 mM in clotrimazole; 1.7 mol % clotrimazole in the clotrimazole-creatinine mixture); • 0.1% (w/v) ketoconazole (5.3 mM); • 0.1% (w/v) fluconazole (30 mM). […] (2009) Biochem. Biophys. Res. Comm. 388(2):252-255.

Penicillium spp. 2 = assay: as above; type: cell-based; details: 0.1% (w/v) solutions in wells of LB agar plate, after 48 hours
Method: as §3

With CN1CC(=O)N=C1N [activated creatinine, creatinine hydrochloride] the MIC ([1]; Escherichia coli, read-out: MIC) was 21.9 mg/mL, the MIC [2] was “no impact on fungal growth” and the MIC [3] was “no impact on fungal growth”. For the same molecule, the MIC ([4]; Enterococcus faecalis, read-out: MIC) was 21.8 mg/mL, the “antibacterial efficacy against S. aureas (Example 2, FIG. 2)” value [5] was “ineffective” and the MIC ([5]; Staphylococcus aureus, read-out: MIC) was 10.9 mg/mL. For the same molecule, the “inhibitory activity against bacteria” value [6] was “broad spectrum inhibitory activity”.
In the case of CC(=O)N1CCN(c2ccc(OCC3COC(Cn4ccnc4)(c4ccc(Cl)cc4Cl)O3)cc2)CC1 (stereo not drawn) [ketoconazole], the “inhibition of fungal growth” value (Penicillium spp. 1) was “do not” and the “inhibition of fungal growth” value (Penicillium spp. 2) was “do not”.
In the case of Clc1ccccc1C(c1ccccc1)(c1ccccc1)n1ccnc1 [Clotrimazole, clotrimazole], the MIC [1] was “no impact on bacterial growth”, the MIC ([2]; Candida albicans, ATCC1023, read-out: MIC) was 6 mg/mL (≈ 17.4 mM) and the MIC ([3]; read-out: MIC) was 7.5 mg/mL (≈ 21.7 mM). For the same molecule, the MIC [4] was “no impact on bacterial growth”, the “antibacterial efficacy against S. aureas (Example 2, FIG. 2)” value [5] was “ineffective” and the MIC [5] was “no impact on bacterial growth”. The “inhibition of fungal growth” value (Penicillium spp. 1) was “does not exhibit antifungal activity”, the “inhibition of fungal growth” value (Penicillium spp. 1; listed as CLO) was “do not” and the “inhibition of fungal growth” value (Penicillium spp. 2) was “does not exhibit antifungal activity”. The “inhibition of fungal growth” value (Penicillium spp. 2; listed as CLO) was “do not”.
In the case of OC(Cn1cncn1)(Cn1cncn1)c1ccc(F)cc1F [fluconazole], the “inhibition of fungal growth” value (Penicillium spp. 1) was “do not” and the “inhibition of fungal growth” value (Penicillium spp. 2) was “do not”.
